Test results reported in PubChem BioAssay AID248 (DTP/NCI, 2004).
Toxic doses and inconclusive results are not listed. No stated cut-off is given here; in the data, active means T/C of 150% or more; inactive means T/C below 125%.

System: L1210 leukemia ip in BDF1 mice, survival T/C
Assay: NCI In Vivo Anticancer Drug Screen. Data for tumor model L1210 Leukemia (intraperitoneal) in B6D2F1 (BDF1) mice
Conditions: endpoint: mean survival time, higher = longer survival
In short: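 Tumor was transplanted into mice, which were then dosed with test compound or vehicle alone. Survival was recorded for each group, and the treated figure was expressed relative to the control figure.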

[1] = dose: 100.0 mg/kg/injection, schedule: Q01DX009 (ip), vehicle: Klucel (hydroxypropylcellulose) (HPC)
[2] = dose: 200.0 mg/kg/injection, schedule: Q01DX009 (ip), vehicle: Klucel (hydroxypropylcellulose) (HPC)
[3] = dose: 400.0 mg/kg/injection, schedule: Q01DX009 (ip), vehicle: Klucel (hydroxypropylcellulose) (HPC)
[4] = dose: 100.0 mg/kg/injection, schedule: Q04DX003 (ip), vehicle: Klucel (hydroxypropylcellulose) (HPC)
[5] = dose: 200.0 mg/kg/injection, schedule: Q04DX003 (ip), vehicle: Klucel (hydroxypropylcellulose) (HPC)
[6] = dose: 100.0 mg/kg/injection, schedule: Q01DX001 (ip), vehicle: saline
[7] = dose: 200.0 mg/kg/injection, schedule: Q01DX001 (ip), vehicle: saline
[8] = dose: 100.0 mg/kg/injection, schedule: Q04DX002 (ip), vehicle: saline
[9] = dose: 200.0 mg/kg/injection, schedule: Q04DX002 (ip), vehicle: saline
[10] = dose: 400.0 mg/kg/injection, schedule: Q04DX002 (ip), vehicle: saline

Measured: T/C

CSc1ccc(NC(=O)c2ccc(C(=O)Nc3ccc(SC)cc3)cc2)cc1
inactive: [1] 94 % of control | [2] 89 % of control | [3] 89 % of control

O=C(CNC(=O)Nc1ccc(Cl)c(Cl)c1)N/N=C/c1ccccc1F
inactive: dose: 50.0 mg/kg/injection, schedule: Q01DX009 (ip), vehicle: saline with Tween-80 93 % of control | dose: 100.0 mg/kg/injection, schedule: Q01DX009 (ip), vehicle: saline with Tween-80 89 % of control | dose: 200.0 mg/kg/injection, schedule: Q01DX009 (ip), vehicle: saline with Tween-80 89 % of control

CC(C)(C)C1CCC2SC(C)(C(C)(C)C)CC(C(C)(C)C)C2C1 (centres undefined)
inactive: dose: 100.0 mg/kg/injection, schedule: Q01DX001 (ip), vehicle: saline with Tween-80 104 % of control | dose: 200.0 mg/kg/injection, schedule: Q01DX001 (ip), vehicle: saline with Tween-80 98 % of control | dose: 400.0 mg/kg/injection, schedule: Q01DX001 (ip), vehicle: saline with Tween-80 91 % of control

CC(C)CC(CC(C)C)NCCOC(=O)Cc1ccccc1
inactive: dose: 75.0 mg/kg/injection, schedule: Q01DX001 (ip), vehicle: other 93 % of control | dose: 150.0 mg/kg/injection, schedule: Q01DX001 (ip), vehicle: other 89 % of control

CCN1C(=O)CC(=O)N(CC)C1=S
inactive: dose: 50.0 mg/kg/injection, schedule: Q01DX009 (ip), vehicle: Klucel (hydroxypropylcellulose) (HPC) 103 % of control | [1] 101 % of control | [4] 94 % of control | [2] 97 % of control | [5] 89 % of control

COC1CCN(CCCn2c3ccccc3c3ccc(C(C)=O)cc32)CC1
inactive: [6] 97 % of control | [7] 105 % of control

O=C(O)c1cc(Cl)c(Br)c(Cl)c1
inactive: dose: 100.0 mg/kg/injection, schedule: Q04DX002 (ip), vehicle: Klucel (hydroxypropylcellulose) (HPC) 100 % of control | dose: 200.0 mg/kg/injection, schedule: Q04DX002 (ip), vehicle: Klucel (hydroxypropylcellulose) (HPC) 107 % of control

NNc1ccc(-c2ccccc2)cc1
inactive: dose: 75.0 mg/kg/injection, schedule: Q01DX001 (ip), vehicle: carboxymethylcellulose (CMC) 95 % of control | dose: 150.0 mg/kg/injection, schedule: Q01DX001 (ip), vehicle: carboxymethylcellulose (CMC) 92 % of control | dose: 300.0 mg/kg/injection, schedule: Q01DX001 (ip), vehicle: carboxymethylcellulose (CMC) 97 % of control

Cc1cn(CCC(N)C(=O)O)c(=O)[nH]c1=O (centres undefined)
inactive: dose: 100.0 mg/kg/injection, schedule: Q01DX009 (ip), vehicle: saline 103 % of control | [8] 106 % of control | dose: 200.0 mg/kg/injection, schedule: Q01DX009 (ip), vehicle: saline 117 % of control | [9] 89 % of control | dose: 400.0 mg/kg/injection, schedule: Q01DX009 (ip), vehicle: saline 95 % of control | [10] 113 % of control

COC1OCC2OC(C)(C)OC2C1OS(=O)(=O)c1ccc([N+](=O)[O-])cc1 (centres undefined)
inactive: dose: 100.0 mg/kg/injection, schedule: Q01DX001 (ip), vehicle: carboxymethylcellulose (CMC) 95 % of control | dose: 200.0 mg/kg/injection, schedule: Q01DX001 (ip), vehicle: carboxymethylcellulose (CMC) 95 % of control | dose: 400.0 mg/kg/injection, schedule: Q01DX001 (ip), vehicle: carboxymethylcellulose (CMC) 101 % of control

O=C(COc1ccc(Cl)cc1Cl)NCc1ccc(Cl)cc1
inactive: [1] 91 % of control | [4] 112 % of control | [2] 96 % of control | [5] 96 % of control | [3] 94 % of control | dose: 400.0 mg/kg/injection, schedule: Q04DX003 (ip), vehicle: Klucel (hydroxypropylcellulose) (HPC) 95 % of control

COc1ccc(C(=O)N2CCN(C)CC2)cc1OC
inactive: [6] 101 % of control | [7] 101 % of control | dose: 400.0 mg/kg/injection, schedule: Q01DX001 (ip), vehicle: saline 97 % of control

CCOC(=O)C(CBr)CBr
inactive: [8] 91 % of control | [9] 88 % of control | [10] 122 % of control
